In patent US20050090563A1, “Method and compositions for inhibiting the scent tracking ability of mosquitoes and biting midges” (Bedoukian Research, Inc., priority 2003, published 2005):

Tested on: Aedes aegypti mosquitoes
Test: Field test of mosquito landings on human subjects near candles containing the test substance
Format: in vivo
Settings: for Four Day Totals of Mosquito Landings On Subjects: field test, Connecticut, August 2003, candles at four corners of 7 ft x 7 ft squares, 18 inches above ground, four human subjects, landings counted on arms, legs and torso, control without substance 152
Description: In a test of the inhibiting ability of the (S)-(+)-linalool chiral isomer compound of this invention, the following field test was conducted. The study was conducted in August 2003 on a site in Connecticut. Candles containing the test compound or no compound were placed 18 inches above the ground at the four corners of 7 ft×7 ft squares, with the squares being placed 50 ft apart. Four subjects (persons) were employed in the tests. On a given day, the subjects were rotated through all four positions of a square. Each day, treatments rotated to the next position, so that each treatment was tested at each site. The landing of mosquitoes on the subject were counted. Landing counts were taken from the arms, legs and torso of a test subject.

| SMILES | Four Day Totals of Mosquito Landings On Subjects | Mosquito landings relative to linalool (same candle field test, four day totals) [%] |
| --- | --- | --- |
| C=CC(C)(O)CCC=C(C)C (stereo not drawn) [Linalool: 35% (+), 65% (−), Linalool, reference compound] | 82 |  |
| C=CC(C)(O)CCC=C(C)C (stereo not drawn) [Linalool: 85% (+), 15% (−), Linalool] | 42 | 73.5 |
